Test results published in PMC11988454, “Discovery of synthetic small molecules targeting the central regulator of Salmonella pathogenicity” (Science Advances, 2025).

Tests used:
[1] = tested on: S. Typhimurium invasion of MDCK cells; test: Invasion assay into MDCK cells; format: cell-based; conditions: C26 100 μM, MOI 5; DMSO control 6.85
Protocol: MDCK (NBL-2) cells were seeded in a 24-well plate at a density of 10^5 cells per well in 1 ml of MEM (Gibco) and grown for 5 to 6 days, to allow polarization. Cells were washed every 2 days with fresh medium. After 5 days, each well contained ~1.8 × 10^6 MDCK cells. Bacteria were grown as for the invasion assay of HeLa cells and diluted to obtain an MOI of 5. The plate was centrifuged for 3 min at 300g to synchronize the infection and then incubated for 25 min at 37°C and 5% (v/v) CO2 to allow Salmonella invasion into MDCK cells. The quantification of invasiveness was carried out as described above for HeLa cells.

[2] = tested on: S. Typhimurium invasion of HeLa cells; test: Invasion assay into HeLa cells; format: cell-based; conditions: C26 100 μM, MOI 20
Protocol: In a white 24-well plate (NUNC), 10^5 HeLa cells were seeded in 350 μl of DMEM (Gibco), 24 hours before the infection. Bacteria were grown in LB supplemented with 0.3 M NaCl and either compound at different concentrations or 1% (v/v) DMSO, at 37°C with shaking at 180 rpm until an OD600 of 0.9 was reached. Bacteria were then pelleted and washed twice with HBSS. The bacterial suspension was diluted to obtain an MOI of 20 to infect HeLa cells. The plate was centrifuged for 5 min at 300g to synchronize the infection and then incubated for 25 min at 37°C and 5% (v/v) CO2 to allow Salmonella invasion into HeLa cells. To quantify the invasiveness, the cells were first washed three times with 500 μl of prewarmed PBS. The remaining extracellular bacteria were killed with 500 μl of DMEM supplemented with gentamicin (100 μg/ml). HeLa cells were incubated for 1 hour and then washed three times with prewarmed PBS and lysed with 500 μl of 0.5% (v/v) SDS in PBS for 5 min at 37°C on a shaking platform. The lysate was serial diluted in PBS-T [PBS with 0.05% (v/v) Tween 20] to determine the colony-forming units (CFUs) by plating on LB medium supplemented with streptomycin (50 μg/ml).

HilD mutants [3] = test: EMSA, binding of HilD mutants to PhilA; format: biochemical, S. Typhimurium; conditions: 600 nM protein
Protocol: (§1) (F) EMSAs showing the binding of 600 nM HilDWT, HilDL45A, HilDY46A, HilDI100A, and HilDY212A to PhilA, upon incubation with the indicated concentrations of C26.
(§2) EMSAs were performed similarly to as described previously ([39]) using a 62–base pair double-stranded (dsDNA) fragment of the hilA promoter, encompassing the A1 binding site ([82]). dsDNA fragments were generated by melting the complementary primers PhilA_A1_f / PhilA_A1_r (table S10) together in TE buffer [10 mM Tris (pH 8.0) and 1 mM EDTA] at 95°C for 10 min before slowly cooling to r.t. The forward primer was modified with a 5′-Cy5 fluorescent dye for detection. The protein (600 nM) was incubated with 50 nM labeled DNA in EMSA buffer [20 mM Tris (pH 8.0), 100 mM KCl, 100 μM EDTA, and 3% glycerol]. C26 was diluted first in DMSO and subsequently 1:100 into the protein-DNA sample. Samples were incubated at 37°C for 15 min, supplemented with diluted DNA loading dye, and separated on a 1.5-mm-thick, 6% (w/v) TBE polyacrylamide gel at 6°C at a constant voltage of 100 V. Gels were imaged using a ChemiDocMP imaging system (Bio-Rad).

HilD mutants [4] = molecular target: T1, HilD mutants (Salmonella typhimurium, UniProt P0CL08, I100A); test: EMSA, binding of HilD mutants to PhilA; format: biochemical, S. Typhimurium; conditions: 600 nM protein
T1 construct: His6-SUMO (N, cleaved yes); made in house; host or cells: E. coli C41(DE3)
Protocol: as §1, §2

[5] = tested on: T3SS-1 (SipA-HiBiT injection into HeLa cells); test: SipA-HiBiT injection assay (split NanoLuc HiBiT/LgBiT); format: cell-based, S. Typhimurium
Protocol: SipA injection assay was performed using the split-Nanoluc (HiBiT/LgBiT) system as described previously ([37], [38]). In brief, NanoLuc is split into two parts: LgBiT, comprising 10 of the 11 β strands of the luciferase, and HiBiT, a short peptide with high affinity to LgBiT, contributing the missing β strand to make a functional luciferase. S. Typhimurium strains expressing SipA-HiBiT were grown in LB supplemented with 0.3 M NaCl and either compound at different concentrations or 1% (v/v) DMSO. Cultures were incubated at 37°C with shaking at 180 rpm until an OD600 of 0.9 was reached. Bacteria were then pelleted and washed twice with Hanks’ balanced salt solution (HBSS). The bacterial suspension was diluted to obtain a multiplicity of infection (MOI) of 50 and then used to infect the LgBiT-expressing HeLa cell. Luminescence was measured using a Tecan Sparc Multimode reader.

HilD variants = test: Plasmid-based whole-cell assay, most frequent HilD substitutions; parameters: species or system S. enterica; conditions: C26 100 μM, 19 functional variants
Protocol: The retrieved sequences and script used to determine the most frequent point mutations in HilD can be accessed on the Zenodo repository. Site-directed mutagenesis was performed using KOD polymerase (Novagen). PhilA activation was monitored as described above using the plasmid-based whole-cell fluorescence assay.

[6] = tested on: T3SS-1 proteins SipA, SctE (SipB), SctP (InvJ); T1SS protein SiiF; test: Western blotting of secreted and whole-cell proteins; format: cell-based, S. Typhimurium; conditions: Western blot
Protocol: Western blot analysis to quantify secreted and nonsecreted proteins was carried out as previously described ([66]). After a 5-hour culture under SPI-1–inducing conditions, cultures were centrifuged at 10,000g for 2 min at 4°C to separate cell pellets for the quantification of target proteins in whole cells, and the supernatant for the quantification of secreted proteins. The supernatants were first filtered with a 0.22-μm pore size filter. Sodium deoxycholic acid was then added to a final concentration of 0.1% (w/v) followed by a protein precipitation with 10% trichloroacetic acid (v/v) for 30 min at 4°C. The samples were pelleted by centrifugation at 20,000g for 20 min at 4°C to retrieve precipitated proteins, which were lastly washed with acetone before resuspension in SDS–polyacrylamide gel electrophoresis (PAGE) loading buffer. Whole-cell samples were directly resuspended in SDS-PAGE loading buffer.

HilC = molecular target: T2, HilC (Salmonella typhimurium, UniProt E1WAB2); test: nanoDSF thermal stability, HilC; format: binding, S. Typhimurium
T2 construct: His6 followed by TEV protease cleavage site (N, cleaved yes); made in house; host or cells: E. coli C41(DE3)
Protocol: Thermal stability of proteins was determined using nanoDSF, with runs performed on a Prometheus NT.48 (NanoTemper Technologies). A twofold serial dilution series of C26 was prepared in DMSO. C26 was added to HilD or HilC (5 μM) in SEC buffer, giving a final DMSO concentration of 1% (v/v). Samples were incubated for >20 min at r.t. and centrifuged for 2 min prior to loading of standard capillaries (no. PR-C002). Samples were heated from 20° to 80°C with a temperature gradient of 0.5°C min^−1. Melting temperatures were calculated from changes in the fluorescence ratio (350/330 nm), using PR.Stability Analysis v1.0.3 and a temperature range of 40° to 70°C for curve fitting. Data analysis was performed using Prism 8.4 (GraphPad). The change in HilD melting temperature, Tm, was fitted as a function of ligand concentration, using Eqs. 1 and 2 to yield apparent affinity (Kd,app) values Tm{[L]0}=Tm,lower+(Tm,upper−Tm,lower)*(1−α{[L]0}) (1) α{[L]0}=[P]t−Kd−[L]t+{[P]t+[L]t+Kd,app}^2−{4[P]t[L]t}/2[P]t (2) where [P]t and [L]t are the total protein and ligand concentrations, respectively.

T3SS-1 (SipA secretion) = test: SipA-NLuc secretion assay (NanoLuc luciferase); format: cell-based, S. Typhimurium; conditions: Salmonella enterica, read-out: IC50 SipA secretion
Protocol: (A) NanoLuc Luciferase assay to screen T3SS-1 inhibitors in 384-well plates. Compounds were screened at a final concentration of 100 μM (N = 3 replicates). Cultures with strains sipA-NLuc and ΔinvA, sipA-NLuc with 1% (v/v) DMSO were used as positive and negative controls, respectively. […] 100% relative SipA secretion corresponds to the luminescence intensity of the WT strain grown in the presence of 1% (v/v) DMSO. The relative SipA secretion of the ∆invA mutant was considered as the bottom (N = 2 technical replicates within N = 3 biological replicates).
For compound screening, 50 μl of overnight cultures of Salmonella with an approximate optical density at 600 nm (OD600) of 2 were diluted in fresh LB medium to an OD600 of 0.05 and added to 384-well plates (Nunc MaxiSorp, white) containing 5 nmol of screening compound per well, for a final compound concentration of 100 μM. The plates were incubated for 5 hours at 37°C with shaking at 180 rpm, upon which the bacteria were removed. The plates were washed with phosphate-buffered saline (PBS) [137 mM NaCl, 2.7 mM KCl, 10 mM Na2HPO4, and 1.8 mM KH2PO4 (pH 7.4)] using a Tecan HydroSpeed plate washer. Residual PBS after washing was removed, and 50 μl of NanoLuc working solution (NanoGlo, Promega) was added to the wells. Luminescence was then measured using a Tecan Sparc Multimode reader. […]

T2 sequence (E1WAB2 whole entry): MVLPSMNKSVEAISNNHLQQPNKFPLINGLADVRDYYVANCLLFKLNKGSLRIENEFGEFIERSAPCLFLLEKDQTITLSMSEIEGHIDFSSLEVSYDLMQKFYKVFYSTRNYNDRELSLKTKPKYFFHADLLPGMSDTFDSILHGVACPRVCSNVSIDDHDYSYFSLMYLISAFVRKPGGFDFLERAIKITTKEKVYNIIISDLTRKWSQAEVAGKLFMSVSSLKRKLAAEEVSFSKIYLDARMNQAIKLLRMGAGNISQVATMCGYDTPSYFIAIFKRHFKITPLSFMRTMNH
T1 sequence (P0CL08 whole entry I100A): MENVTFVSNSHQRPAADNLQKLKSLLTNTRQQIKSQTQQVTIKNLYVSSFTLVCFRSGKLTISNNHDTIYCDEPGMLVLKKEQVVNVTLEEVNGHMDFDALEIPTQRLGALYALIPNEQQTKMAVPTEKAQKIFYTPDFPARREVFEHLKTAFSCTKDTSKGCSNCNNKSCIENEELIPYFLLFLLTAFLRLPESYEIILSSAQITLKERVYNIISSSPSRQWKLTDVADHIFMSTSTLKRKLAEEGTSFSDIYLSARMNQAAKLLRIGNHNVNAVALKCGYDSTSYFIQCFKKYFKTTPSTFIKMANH

## CN(CC(=O)NCc1ccc2c(c1)OCO2)Cc1ccc(Br)s1 [C26, N-(benzo[d][1,3]dioxol-5-ylmethyl)-2-{[(5-bromothiophen-2-yl)methyl](methyl)amino}acetamide]
[1]
  Invasion of MDCK cells (%), of the original inoculum: 1.6%
[2]
  invasiveness of HilDY46A mutant into HeLa cells: unaffected
[2]; DMSO control 11.75
  Invasion of HeLa cells (%), of the original inoculum: 3.5%
HilD mutants [3]
  DNA binding ability of HilDL45A, HilDY46A, HilDY212A: did not exert any effect
HilD mutants [4]
  HilDI100A binding to PhilA: hindered
[5]; C26 100 μM added to bacterial culture, 1 hour postinfection, MOI 50
  residual SipA injection: 11%
[5]; C26 100 μM only in infection inoculum, 1 hour postinfection, MOI 50
  SipA injection, % of the untreated bacteria: 48%
[5]; C26 added to bacterial culture
  SipA injection into HeLa cells over a 5-hour infection time: dose-dependent decrease
HilD variants
  activity on the most frequent HilD substitution variants: inhibitory activity on all the tested variants at a level similar to that of the WT reference sequence
[6]
  SipA, SctE and SctP secretion into the culture supernatant: reduced in a dose-dependent manner
  expression of SipA, SctE and SctP in whole cells: blocked the expression
[6]; FLAG-tagged SiiF
  expression of SiiF: dose-dependent reduction
HilC
  thermal stability of HilC: no effect on the thermal stability
T3SS-1 (SipA secretion)
  IC50: 29.2 µM
